Data taken from patent publication US8192962B2, “Processes for detecting toxic substances” (Daikin Industries, Ltd., priority 2001, dated 2012).

Tested on: Transport facilitation protein genes
Assay: DNA chip mRNA expression in yeast, transport facilitation protein genes (Table 5)
Type: cell-based, Saccharomyces cerevisiae S288C
Procedure, shortened: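 Untreated cultures served as reference for log-phase S288C yeast given a growth-inhibiting, non-lethal toxicant dose for 2 h at 25° C. in YPD. Gene expression was measured on a whole-genome DNA chip from Cy3/Cy5-labeled cDNA.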

Structure (SMILES): O=[N+]([O-])c1cc[n+]([O-])c2ccccc12 [(5), 4-nitroquinolin-N-oxide]
- The level of expressed mRNA in the presence of chemical substance/The level of expressed mRNA in the absence of chemical substance (yeast gene YGR281W): 0.6
- The level of expressed mRNA in the presence of chemical substance/The level of expressed mRNA in the absence of chemical substance (yeast gene YHL035C): 0.9
- The level of expressed mRNA in the presence of chemical substance/The level of expressed mRNA in the absence of chemical substance (yeast gene YHL040C): 1.1
- The level of expressed mRNA in the presence of chemical substance/The level of expressed mRNA in the absence of chemical substance (yeast gene YHL047C): 1.2
- The level of expressed mRNA in the presence of chemical substance/The level of expressed mRNA in the absence of chemical substance (yeast gene YHR026W): 1.1
- The level of expressed mRNA in the presence of chemical substance/The level of expressed mRNA in the absence of chemical substance (yeast gene YHR092C): 1.4
- The level of expressed mRNA in the presence of chemical substance/The level of expressed mRNA in the absence of chemical substance (yeast gene YHR094C): 1.1
- The level of expressed mRNA in the presence of chemical substance/The level of expressed mRNA in the absence of chemical substance (yeast gene YHR175W): 0.9
- The level of expressed mRNA in the presence of chemical substance/The level of expressed mRNA in the absence of chemical substance (yeast gene YIL006W): 0.8
- The level of expressed mRNA in the presence of chemical substance/The level of expressed mRNA in the absence of chemical substance (yeast gene YIL022W): 0.8
- The level of expressed mRNA in the presence of chemical substance/The level of expressed mRNA in the absence of chemical substance (yeast gene YIL056W): 1.2
- The level of expressed mRNA in the presence of chemical substance/The level of expressed mRNA in the absence of chemical substance (yeast gene YIL088C): 1.6
- The level of expressed mRNA in the presence of chemical substance/The level of expressed mRNA in the absence of chemical substance (yeast gene YJL034W): 1.2
- The level of expressed mRNA in the presence of chemical substance/The level of expressed mRNA in the absence of chemical substance (yeast gene YJL212C): 1.2
- The level of expressed mRNA in the presence of chemical substance/The level of expressed mRNA in the absence of chemical substance (yeast gene YJL219W): 1.2
- The level of expressed mRNA in the presence of chemical substance/The level of expressed mRNA in the absence of chemical substance (yeast gene YJR077C): 0.9
- The level of expressed mRNA in the presence of chemical substance/The level of expressed mRNA in the absence of chemical substance (yeast gene YJR106W): 0.9
- The level of expressed mRNA in the presence of chemical substance/The level of expressed mRNA in the absence of chemical substance (yeast gene YJR121W): 0.8
- The level of expressed mRNA in the presence of chemical substance/The level of expressed mRNA in the absence of chemical substance (yeast gene YKL016C): 1.5
- The level of expressed mRNA in the presence of chemical substance/The level of expressed mRNA in the absence of chemical substance (yeast gene YKL146W): 1.0
- The level of expressed mRNA in the presence of chemical substance/The level of expressed mRNA in the absence of chemical substance (yeast gene YKR039W): 1.0
- The level of expressed mRNA in the presence of chemical substance/The level of expressed mRNA in the absence of chemical substance (yeast gene YKR067W): 1.3
- The level of expressed mRNA in the presence of chemical substance/The level of expressed mRNA in the absence of chemical substance (yeast gene YLL028W): 0.9
- The level of expressed mRNA in the presence of chemical substance/The level of expressed mRNA in the absence of chemical substance (yeast gene YLR081W): 1.0
- The level of expressed mRNA in the presence of chemical substance/The level of expressed mRNA in the absence of chemical substance (yeast gene YLR295C): 2.2
- The level of expressed mRNA in the presence of chemical substance/The level of expressed mRNA in the absence of chemical substance (yeast gene YLR348C): 0.9
- The level of expressed mRNA in the presence of chemical substance/The level of expressed mRNA in the absence of chemical substance (yeast gene YLR378C): 1.0
- The level of expressed mRNA in the presence of chemical substance/The level of expressed mRNA in the absence of chemical substance (yeast gene YMR011W): 0.9
- The level of expressed mRNA in the presence of chemical substance/The level of expressed mRNA in the absence of chemical substance (yeast gene YMR162C): 0.9
- The level of expressed mRNA in the presence of chemical substance/The level of expressed mRNA in the absence of chemical substance (yeast gene YMR203W): 0.6
- The level of expressed mRNA in the presence of chemical substance/The level of expressed mRNA in the absence of chemical substance (yeast gene YNL055C): 0.9
- The level of expressed mRNA in the presence of chemical substance/The level of expressed mRNA in the absence of chemical substance (yeast gene YNL259C): 1.1
- The level of expressed mRNA in the presence of chemical substance/The level of expressed mRNA in the absence of chemical substance (yeast gene YNR072W): 1.0
- The level of expressed mRNA in the presence of chemical substance/The level of expressed mRNA in the absence of chemical substance (yeast gene YOL119C): 1.5
- The level of expressed mRNA in the presence of chemical substance/The level of expressed mRNA in the absence of chemical substance (yeast gene YOL156W): 1.2
- The level of expressed mRNA in the presence of chemical substance/The level of expressed mRNA in the absence of chemical substance (yeast gene YOL163W): 0.9
- The level of expressed mRNA in the presence of chemical substance/The level of expressed mRNA in the absence of chemical substance (yeast gene YOR035C): 1.0
- The level of expressed mRNA in the presence of chemical substance/The level of expressed mRNA in the absence of chemical substance (yeast gene YOR130C): 1.8
- The level of expressed mRNA in the presence of chemical substance/The level of expressed mRNA in the absence of chemical substance (yeast gene YOR153W): 1.0
- The level of expressed mRNA in the presence of chemical substance/The level of expressed mRNA in the absence of chemical substance (yeast gene YOR270C): 0.8
- The level of expressed mRNA in the presence of chemical substance/The level of expressed mRNA in the absence of chemical substance (yeast gene YOR273C): 1.1
- The level of expressed mRNA in the presence of chemical substance/The level of expressed mRNA in the absence of chemical substance (yeast gene YOR316C): 1.0
- The level of expressed mRNA in the presence of chemical substance/The level of expressed mRNA in the absence of chemical substance (yeast gene YOR328W): 1.0
- The level of expressed mRNA in the presence of chemical substance/The level of expressed mRNA in the absence of chemical substance (yeast gene YOR332W): 0.9
- The level of expressed mRNA in the presence of chemical substance/The level of expressed mRNA in the absence of chemical substance (yeast gene YOR348C): 0.9
- The level of expressed mRNA in the presence of chemical substance/The level of expressed mRNA in the absence of chemical substance (yeast gene YPL036W): 1.3
- The level of expressed mRNA in the presence of chemical substance/The level of expressed mRNA in the absence of chemical substance (yeast gene YPL134C): 1.4
- The level of expressed mRNA in the presence of chemical substance/The level of expressed mRNA in the absence of chemical substance (yeast gene YPL265W): 1.0
- The level of expressed mRNA in the presence of chemical substance/The level of expressed mRNA in the absence of chemical substance (yeast gene YPL271W): 1.4
- The level of expressed mRNA in the presence of chemical substance/The level of expressed mRNA in the absence of chemical substance (yeast gene YPR124W): 2.0
- The level of expressed mRNA in the presence of chemical substance/The level of expressed mRNA in the absence of chemical substance (yeast gene YPR192W): 1.2
- The level of expressed mRNA in the presence of chemical substance/The level of expressed mRNA in the absence of chemical substance (yeast gene YPR194C): 1.3
